According to US10501493B2, “Broad spectrum antibiotics” (priority 2011, dated 2019):
In brackets after ≈: the same amount, converted by molar mass. Read-outs that look alike come from different tables or passages of the source.

What was measured:
E. coli SPase = molecular target: T1, E. coli SPase (Escherichia coli, UniProt P00803); experiment: Steady state binding constant (Kd) determination by fluorescence increase
T1 construct: Full length His-tagged E. coli SPase proteins were expressed in E. coli BL21(DE3); His-tag; made in house; host or cells: E. coli BL21(DE3)
Method: (§1) Full length His-tagged E. coli SPase proteins were expressed in E. coli BL21(DE3) containing the plasmid pET23-lepB, P. A. Smith et al. Chem Biol 2010, 1223-1231. Briefly, saturated overnight cultures grown in 20 ml of Luria-Bertani medium supplemented with ampicillin were subcultures into 1.5 L of Luria-Bertani, and shaken at 37° C. until an optical density at 600 nm of 0.4-0.5 was achieved. Protein expression was induced with Isopropyl β-D-1-thiogalactopyranoside (ITPG) at a final concentration of […], and purified using nickel affinity chromatography. Full length His-tagged S. aureus SPase protein was expressed similarly from E. coli BL21(DE3) containing the plasmid pCDF1-SaSpsB or pCDF1-SaSpsB(P29S) and purified similarly to the E. coli protein with the following exceptions. SPase protein was solubilized using 300 mM NaCl, 20 mM Tris pH 8.06, 5 mM Imidazole, 10% glycerol, 1% Triton X-100, prior to purification in Ni-NTA Superflow resin and resin bound protein was washed in a similar buffer containing 1% Elugent in place of Triton X-100 prior to protein eluted in wash buffer supplemented with 300 mM imidazole. Protein purify was judged to exceed 95% by visual inspection of SDS-PAGE followed by Comassie staining. All protein concentrations were determined by BCA assay.
(§2) Steady state binding constants (Kds) of compounds were determined by measuring an increase in fluorescence (λex=280 nm, λem=405 nm) that occurs upon binding to E. coli or S. aureus SPase protein. Two-fold serial dilutions of compounds were prepared in 100% DMSO, and compounds were diluted into binding buffer consisting of 100 mM NaCl, 20 mM Tris-HCl pH 7.4, 1 mM EDTA, 1% n-octyl-3-glucopyranoside (Anatrace), and 10% glycerol, with the final DMSO concentration equal to 1%. 70 μl of the resulting solutions containing various concentrations of compound in binding buffer were aliquoted into triplicate wells of a black polystyrene 384-well plate. 5 μl of blank solution or E. coli or S. aureus protein at concentrations of 750 or 3750 nM respectively, were added to each set of wells for a given inhibitor concentration. Plates were incubated for 14 hours and fluorescence read on an EnVision Multilable plate reader (Perkin Elmer™). Differences in fluorescence values between wells with and without protein were determined and background corrected for protein auto fluorescence. The corrected fluorescence difference data was fit to the quadratic equilibrium binding curve using the non-linear regression analysis software Solver (Frontline Systems®) run in Excel 2010, (Microsoft®), using experimentally determined quantum efficiency constants to convert fluorescence into nanomoles of protein/compound complex.

S. aureus SPase = molecular target: T2, S. aureus SPase (Staphylococcus aureus, UniProt P0A070); experiment: as above
T2 construct: Full length His-tagged S. aureus SPase protein was expressed similarly; His-tag; made in house; host or cells: E. coli BL21(DE3)
Method: as §1, §2

S. pyogenes ATCC 19615 = experiment: In vitro antimicrobial activity, MIC by broth micro-dilution; format: cell-based; conditions: Streptococcus pyogenes, ATCC19615, read-out: MIC
P. aeruginosa PA01 = experiment: as above; format: cell-based; conditions: Pseudomonas aeruginosa, read-out: MIC
Procedure, shortened: (§3)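 CLSI broth micro-dilution MIC against two-fold serial compound dilutions. Inoculum came from colonies grown 24 h at 35° C. or 28° C., suspended in cation-adjusted Mueller Hinton broth at 1*10^7 CFU/ml, of which 5 μl was added per 100 μl well. LepB(P84L) is a proline-mutant SPase strain with heightened arylomycin susceptibility.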

R. equi DSM 6939 = experiment: as above; format: cell-based; conditions: Rhodococcus (subgen. Prescottella) equi, DSM6939, read-out: MIC
Procedure, shortened: as §3

S. pneumoniae D39 = experiment: as above; format: cell-based; conditions: Streptococcus pneumoniae; S. pneumoniae D39; read-out: MIC
[1] = tested on: E. coli MIG1655 LepB(P84L); experiment: as above; format: cell-based; conditions: Escherichia coli
Procedure, shortened: as §3

E. coli MIG1655 = experiment: as above; format: cell-based; conditions: Escherichia coli, MIG1655
Procedure, shortened: as §3

[2] = tested on: S. epidermidis ATCC 12228; experiment: as above; format: cell-based; conditions: Staphylococcus epidermidis, ATCC12228, read-out: MIC
S. agalactiae COH-1 = experiment: as above; format: cell-based; conditions: Streptococcus agalactiae, COH1
S. aureus ATCC 29213 = experiment: as above; format: cell-based; conditions: Staphylococcus aureus, ATCC29213, read-out: MIC
C. glutamicum DSM 44475 = experiment: as above; format: cell-based; conditions: Corynebacterium glutamicum, DSM44475, read-out: MIC
S. epidermidis RP62A = experiment: as above; format: cell-based; conditions: Staphylococcus epidermidis; S. epidermidis RP62A; read-out: MIC
S. agalactiae ATCC 13813 = experiment: as above; format: cell-based; conditions: Streptococcus agalactiae, ATCC13813, read-out: MIC
S. pyogenes M15448 = experiment: as above; format: cell-based; conditions: Streptococcus pyogenes
Procedure, shortened: as §3

[3] = tested on: S. aureus NCTC-8325 SpsB(P295); experiment: as above; format: cell-based; conditions: Staphylococcus aureus, NCTC8325
[4] = tested on: S. epidermidis RP62A SpsIB(S29P); experiment: as above; format: cell-based; conditions: Staphylococcus epidermidis
[5] = tested on: P. aeruginosa PA01 LepB(P84L); experiment: as above; format: cell-based; conditions: Pseudomonas aeruginosa
Procedure, shortened: as §3

S. pneumoniae R800 = experiment: as above; format: cell-based; conditions: Streptococcus pneumoniae, read-out: MIC
Procedure, shortened: as §3

[6] = tested on: S. epidermidis RP62A SpsIB(S31P); experiment: as above; format: cell-based; conditions: Staphylococcus epidermidis
[7] = S. agalactiae COH-1, read-out: MIC
[8] = S. pyogenes M15448, read-out: MIC

CCCCCCCCCCCCCCCC(=O)N(C)[C@H](CO)C(=O)N[C@H](C)C(=O)NCC(=O)N(C)[C@@H]1C(=O)N[C@@H](C)C(=O)N[C@H](C(=O)O)Cc2ccc(O)c(c2)-c2cc1ccc2O [Compound 1, arylomycin C16]
Kd (E. coli SPase): 0.075 µM | Kd (S. aureus SPase): 0.75 µM | MIC (S. pyogenes ATCC 19615): 16 µg/mL (≈ 18.2 µM) | MIC (P. aeruginosa PA01): > 64 µg/mL | MIC (R. equi DSM 6939): 16 µg/mL (≈ 18.2 µM) | MIC (S. pneumoniae D39): 4 µg/mL (≈ 4.54 µM) | MIC [1]: 1 µg/mL (≈ 1.13 µM) | MIC (E. coli MIG1655): > 64 µg/mL | MIC [2]: 2 µg/mL (≈ 2.27 µM) | MIC (S. agalactiae COH-1; [7]): > 64 µg/mL | MIC (S. aureus ATCC 29213): > 64 µg/mL | MIC (C. glutamicum DSM 44475): 8 µg/mL (≈ 9.08 µM) | MIC (S. epidermidis RP62A): 0.3 µg/mL (≈ 0.34 µM) | MIC (S. agalactiae ATCC 13813): 16 µg/mL (≈ 18.2 µM) | MIC (S. pyogenes M15448; [8]): 16 µg/mL (≈ 18.2 µM) | MIC [3]: 4 µg/mL (≈ 4.54 µM) | MIC [4]: 8 µg/mL (≈ 9.08 µM) | MIC [5]: 8 µg/mL (≈ 9.08 µM) | MIC (S. pneumoniae R800): 8 µg/mL (≈ 9.08 µM) | MIC [6]: > 64 µg/mL

CCCCCCCCCCCCCCCC(=O)N(C)[C@H](CO)C(=O)N[C@H](C)C(=O)NCC(=O)N(C)[C@@H]1C(=O)N[C@@H](C)C(=O)N[C@H](C(=O)N[C@H](C)C(=O)O)Cc2ccc(O)c(c2)-c2cc1ccc2O [Compound 19]
Kd (E. coli SPase): 2.8 µM | Kd (S. aureus SPase): 18 µM | MIC (S. pyogenes ATCC 19615): 16 µg/mL (≈ 16.8 µM) | MIC (S. pneumoniae D39): 16 µg/mL (≈ 16.8 µM) | MIC [1]: 8 µg/mL (≈ 8.4 µM) | MIC [2]: 32 µg/mL (≈ 33.6 µM) | MIC (S. agalactiae COH-1): > 64 µg/mL | MIC (S. aureus ATCC 29213): > 64 µg/mL | MIC (C. glutamicum DSM 44475): 16 µg/mL (≈ 16.8 µM) | MIC (S. epidermidis RP62A): 8 µg/mL (≈ 8.4 µM) | MIC (S. agalactiae ATCC 13813): 32 µg/mL (≈ 33.6 µM) | MIC (S. pyogenes M15448; M15448): 32 µg/mL (≈ 33.6 µM) | MIC [3]: > 64 µg/mL | MIC [4]: > 64 µg/mL | MIC [5]: > 64 µg/mL | MIC (S. pneumoniae R800): 32 µg/mL (≈ 33.6 µM) | MIC [6]: > 64 µg/mL

CCCCCCCCCCCCCCCC(=O)N(C)[C@H](CO)C(=O)N[C@H](C)C(=O)NCC(=O)N(C)[C@@H]1C(=O)N[C@@H](C)C(=O)N[C@H](C(=O)N[C@@H](C)C(=O)O)Cc2ccc(O)c(c2)-c2cc1ccc2O [Compound 20]
Kd (E. coli SPase): 12 µM | Kd (S. aureus SPase): 7.8 µM | MIC (S. pyogenes ATCC 19615): 32 µg/mL (≈ 33.6 µM) | MIC (S. pneumoniae D39): 16 µg/mL (≈ 16.8 µM) | MIC [1]: 32 µg/mL (≈ 33.6 µM) | MIC [2]: 32 µg/mL (≈ 33.6 µM) | MIC (S. agalactiae COH-1; [7]): > 64 µg/mL | MIC (S. aureus ATCC 29213): > 64 µg/mL | MIC (C. glutamicum DSM 44475): 64 µg/mL (≈ 67.2 µM) | MIC (S. epidermidis RP62A): 4 µg/mL (≈ 4.2 µM) | MIC (S. agalactiae ATCC 13813): 32 µg/mL (≈ 33.6 µM) | MIC (S. pyogenes M15448; [8]): 64 µg/mL (≈ 67.2 µM) | MIC [3]: > 64 µg/mL | MIC [4]: 32 µg/mL (≈ 33.6 µM) | MIC [5]: > 64 µg/mL | MIC (S. pneumoniae R800): 32 µg/mL (≈ 33.6 µM) | MIC [6]: > 64 µg/mL

CCCCCCCCCCCCCCCC(=O)N(C)[C@H](CO)C(=O)N[C@H](C)C(=O)NCC(=O)N(C)[C@@H]1C(=O)N[C@@H](C)C(=O)N[C@H](C(=O)NS(C)(=O)=O)Cc2ccc(O)c(c2)-c2cc1ccc2O [Compound 22]
Kd (E. coli SPase): 1 µM | Kd (S. aureus SPase): 19 µM | MIC (S. pyogenes ATCC 19615): 16 µg/mL (≈ 16.7 µM) | MIC (S. pneumoniae D39): 16 µg/mL (≈ 16.7 µM) | MIC [1]: 16 µg/mL (≈ 16.7 µM) | MIC [2]: > 64 µg/mL | MIC (S. agalactiae COH-1): > 64 µg/mL | MIC (S. aureus ATCC 29213): > 64 µg/mL | MIC (C. glutamicum DSM 44475): 8 µg/mL (≈ 8.35 µM) | MIC (S. epidermidis RP62A): 2 µg/mL (≈ 2.09 µM) | MIC (S. agalactiae ATCC 13813): 32 µg/mL (≈ 33.4 µM) | MIC (S. pyogenes M15448; M15448): 16 µg/mL (≈ 16.7 µM) | MIC [3]: > 64 µg/mL | MIC [4]: > 64 µg/mL | MIC [5]: > 64 µg/mL | MIC (S. pneumoniae R800): 16 µg/mL (≈ 16.7 µM) | MIC [6]: > 64 µg/mL
